The test system of data set [1] is serum ALT level after CCl4 treatment. The data set is described as follows: Determination of 50% inhibitory dose (ID50) against CCl4-induced serum ALT increase. It counts as in vivo. The following applies: Mus musculus; mice, oral, 6 h before CCl4; estimated from dose-response curve at 50, 25, 12.5, 6.25 mg/kg. On the procedure:
Principle The various doses of test compounds were administered to mice, followed by the treatment with CCl4 after 6 hours. 24 Hours after the CCl4 treatment, the serum ALT level of the animals were determined. The hepatoprotective effect of the test compounds and the doses were plotted to form dose-response curves. The ID50 doses of the test compounds were estimated from the dose-response curves.
Method; The experimental animals were divided into normal, CCl4 treated and test compound treated groups. Each group consisted of 8 mice with body weight of 20-25 grams. The test compounds were suspended in 0.2% CMC-Na solution and administered orally at a dose of 50 mg, 25 mg, 12.5 mg, or 6.25 mg/125 ml/kg body weight. Only the vehicle, 0.2% CMC-Na solution, was administered to the normal and to the CCl4 treated group instead of the test compound suspension. 6 Hours after the drug administration, the CCl4 solution in olive oil was administered orally to the CCl4 treated and the test compound treated groups at the dose of 50 ul/25 ml olive oil/kg body weight. The normal group was administered olive oil only at the same dose. 24 Hours after the CCl4 administration, blood samples were collected from the orbital sinus of the animals and the sera were obtained by centrifugation. The serum ALT activities were monitored and the hepatoprotective effect of the test compounds were calculated by the same method as described in experiment 1. The inhibitory percentages were plotted against the corresponding doses of the test compounds to make dose-response curves. The 50% inhibitory dose of test compound was estimated from the dose-response curve.

Data set [2] has as its system serum ALT activity induced by CCl4. The data set can be described thus: Protective effect against acute hepatic damage induced by carbon tetrachloride (serum ALT). It counts as in vivo. The following applies: Mus musculus; mice, 50 mg/kg oral, 6 h before CCl4 (50 ul/kg oral); ALT 24 h after CCl4; read-out: Inhibitory (%): protective effect against increase of serum ALT activity induced by CCl4. The procedure:
Principle; Carbon tetrachloride (CCl4) is a well-known hepatotoxic agent, thus widely used to produce experimental animal models for screening the potential drugs acting upon hepatic diseases. In this experiment test compounds were administered to mice prior to treatment with CCl4. 24 Hours after the CCl4 treatment, the animals were sacrificed and serum alanine aminotransferase (ALT) levels were determined. The hepatoprotective effect of a test compound was evaluated by the suppressive action against the increase of serum ALT induced by CCl4.
Method; The experimental animals were divided into normal, CCl4 treated and test compound treated groups. Each group consisted of 8 mice with body weight of 20-25 grams. The test compounds were suspended in 0.2% sodium carboxy methyl cellulose (CMC-Na) solution and administered orally at the dose of 50 mg/125 ml/kg body weight. Only the vehicle, 0.2% CMC-Na solution, was administered to the normal and to the CCl4 treated group instead of the test compound suspension. 6 Hours after the drug administration, the CCl4 solution in olive oil was administered orally to the CCl4 treated- and the test compound treated group at the dose of 50 ul/25 ml olive oil/kg body weight. The normal group was administered olive oil only at the same dose. 24 Hours after the CCl4 administration, blood samples were collected from the orbital sinus of the animals and the sera were obtained by centrifugation The serum ALT activities were monitored using an automatic blood analyzer (Gilford, SBA 300). The hepatoprotective effect of the test compounds was expressed by the suppressive percentage against the increase of serum ALT level induced by CCl4 calculated by the following formula; [formula]

A short description of data set [3]: Acute oral toxicity, median lethal dose (LD50). The following applies: mouse, in vivo, male ICR mice, deaths counted for 14 days. The procedure:
Each test compound was suspended in a 0.2% CMC-Na solution in various concentrations to make test suspension. The test suspensions were administered orally to male ICR mice (10 in each group) at various doses. The number of dead mice was counted for 14 days and the value of mediam lethal dose (LD50, g/kg) was calculated by the Hitchifield-Wilcoxon method.

With `CC(C)OC(=O)C(C(=O)Nc1cc[nH]n1)=C1SC=CS1` [20(a), Isopropyl 2-(1,3-dithiol-2-ylidene)-2-[N-(3-pyrazolyl)-carbamoyl]acetate], in data set [1], the median effective dose (ED50) is 8 mg/kg. For the same molecule, the inhibition in vivo at 50 mg/kg in data set [2] amounted to 102%. The median lethal dose (LD50) at 336 h in data set [3] was 5000 mg/kg.
On to `CC(C)OC(=O)C(C(=O)Nc1nnn[nH]1)=C1SC=CS1` [20(b), Isopropyl 2-(1,3-dithiol-2-ylidene)-2-[N-(5-tetrazolyl)-carbamoyl]acetate], for which, in data set [1], the ED50 is 10 mg/kg. Also, the inhibition in vivo at 50 mg/kg in data set [2] is 99.9%. Besides, the median lethal dose (LD50) at 336 h in data set [3] turned out to be 5000 mg/kg.
In the case of `CC(C)OC(=O)C(C(=O)Nc1ccc(O)cc1)=C1SC=CS1` [22(a), Isopropyl 2-(1,3-dithiol-2-ylidene)-2-[N-(4-hydroxyphenyl)carbamoyl]acetate], in data set [1], the ED50 was 12.5 mg/kg. Moreover, the inhibition in vivo at 50 mg/kg in data set [2] worked out at 99.2%. Also, the LD50 at 336 h in data set [3] is over 5000 mg/kg.

Source of the values: patent US5158950A, “1,3-dithiol-2-ylidene derivatives and process for the preparation thereof” (Yuhan Corporation, Ltd., priority 1987, dated 1992).
